Data as given in patent US8765741B2, “5,6-dihydro-1H-pyridin-2-one compounds” (Anadys Pharmaceuticals, Inc., priority 2007, dated 2014).

What follows are molecules tested against NS5B polymerase (Hepatitis C virus genotype 1b, UniProt P26663) (assay: biochemical). Conditions: not given.
Description: Compounds were tested for HCV polymerase inhibition. Assays were performed in a 96-well streptavidin-coated FlashPlate using 20 nM enzyme, 0.5 μCi of [α-^33P]GTP, 0.6 μM GTP, and 250 nM 5′biotinylated oligo (rG13)/poly rC in 20 mM Tris-HCl, pH 7.5, 5 mM MgCl2, 5 mM dithiothreitol, 0.1 g/L bovine serum albumin, and 100 U/mL RNAse inhibitor. The reaction was stopped by aspiration after 75 min at 28° C. and the plate was washed several times. After washing and drying the plate, incorporated radioactivity was counted using a Microbeta scintillation counter. IC50 values were calculated relative to the uninhibited control and inhibition data were fitted to a 4-parameter IC50 equation.

NS5B polymerase, sequence (P26663 2420-3010): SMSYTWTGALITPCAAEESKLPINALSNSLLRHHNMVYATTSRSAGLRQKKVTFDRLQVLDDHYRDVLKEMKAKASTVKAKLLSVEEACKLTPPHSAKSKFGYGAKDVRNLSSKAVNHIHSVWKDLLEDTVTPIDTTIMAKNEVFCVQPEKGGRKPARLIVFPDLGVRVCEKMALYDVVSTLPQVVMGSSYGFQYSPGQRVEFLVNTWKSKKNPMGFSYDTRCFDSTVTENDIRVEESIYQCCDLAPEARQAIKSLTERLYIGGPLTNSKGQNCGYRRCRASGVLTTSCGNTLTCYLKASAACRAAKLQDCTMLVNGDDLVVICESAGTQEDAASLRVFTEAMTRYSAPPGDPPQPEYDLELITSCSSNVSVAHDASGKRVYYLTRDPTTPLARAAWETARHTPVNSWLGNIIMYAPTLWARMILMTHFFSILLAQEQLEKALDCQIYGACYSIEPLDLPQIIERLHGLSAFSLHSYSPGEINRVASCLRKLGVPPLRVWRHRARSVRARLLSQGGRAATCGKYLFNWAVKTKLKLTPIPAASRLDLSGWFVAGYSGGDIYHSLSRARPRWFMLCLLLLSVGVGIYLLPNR

| Structure (SMILES) | IC50 |
| --- | --- |
| CS(=O)(=O)Nc1ccc2c(c1)S(=O)(=O)N=C(C1=C(O)C3C4CCC(C4)C3N(Cc3ccc(F)cc3)C1=O)N2 (racemic) [Example 1, (rac-di-exo)-N-{3-[3-(4-Fluoro-benzyl)-6-hydroxy-4-oxo-3-aza-tricyclo[6.2.1.0^2,7]undec-5-en-5-yl]-1,1-dioxo-1,4-dihydro-1λ^6-benzo[1,2,4]thiadiazin-7-yl}-methanesulfonamide] | < 20 nM |

Same assay, conditions: NS5B polymerase inhibition; 20 nM enzyme, 75 min at 28° C.

| Structure (SMILES) | IC50 |
| --- | --- |
| CS(=O)(=O)Nc1ccc2c(c1)S(=O)(=O)N=C(C1=C(O)C3C4CCC(C4)C3N(Cc3ccc(F)cc3)C1=O)N2 (racemic) [Example 2, (rac-di-endo)-N-{3-[3-(4-Fluoro-benzyl)-6-hydroxy-4-oxo-3-aza-tricyclo[6.2.1.0^2,7]undec-5-en-5-yl]-1,1-dioxo-1,4-dihydro-1λ^6-benzo[1,2,4]thiadiazin-7-yl}-methanesulfonamide] | < 20 nM |

Same assay, conditions: NS5B polymerase inhibition; 20 nM enzyme, 75 min at 28° C.; read-out: IC50

| Structure (SMILES) | IC50 |
| --- | --- |
| CS(=O)(=O)Nc1ccc2c(c1)S(=O)(=O)N=C(C1=C(O)C3C4CCC(C4)C3N(Cc3ccc(F)cn3)C1=O)N2 (racemic) [Example 3, (rac-di-endo)-N-{3-[3-(5-Fluoro-pyridin-2-ylmethyl)-6-hydroxy-4-oxo-3-aza-tricyclo[6.2.1.0^2,7]undec-5-en-5-yl]-1,1-dioxo-1,4-dihydro-1λ^6-benzo[1,2,4]thiadiazin-7-yl}-methanesulfonamide] | 100 to 1000 nM |
| CS(=O)(=O)Nc1ccc2c(c1)S(=O)(=O)N=C(C1=C(O)C3C4CCC(O4)C3N(Cc3ccc(F)cc3)C1=O)N2 (racemic) [Example 8, (rac-di-exo)-N-{3-[3-(4-Fluoro-benzyl)-6-hydroxy-4-oxo-11-oxa-3-aza-tricyclo[6.2.1.0^2,7]undec-5-en-5-yl]-1,1-dioxo-1,4-dihydro-1λ^6-benzo[1,2,4]thiadiazin-7-yl}-methanesulfonamide] | < 20 nM |
| CS(=O)(=O)Nc1ccc2c(c1)S(=O)(=O)N=C(C1=C(O)C3C4C=CC(C4)C3N(Cc3ccc(F)cc3)C1=O)N2 (racemic) [Example 9, (rac-di-exo)-N-{3-[3-(4-Fluoro-benzyl)-6-hydroxy-4-oxo-3-aza-tricyclo[6.2.1.0^2,7]undeca-5,9-dien-5-yl]-1,1-dioxo-1,4-dihydro-1λ^6-benzo[1,2,4]thiadiazin-7-yl}-methanesulfonamide] | 20 to 100 nM |
| CS(=O)(=O)Nc1ccc2c(c1)S(=O)(=O)N=C(C1=C(O)C3C4C=CC(C4)C3N(Cc3ccc(F)cc3)C1=O)N2 (racemic) [Example 10, (rac-di-endo)-N-{3-[3-(4-Fluoro-benzyl)-6-hydroxy-4-oxo-3-aza-tricyclo[6.2.1.0^2,7]undeca-5,9-dien-5-yl]-1,1-dioxo-1,4-dihydro-1λ^6-benzo[1,2,4]thiadiazin-7-yl}-methanesulfonamide] | 20 to 100 nM |
| Cc1cc(CN2C(=O)C(C3=NS(=O)(=O)c4cc(NS(C)(=O)=O)ccc4N3)=C(O)C3C4CCC(O4)C32)ccc1F (racemic) [Example 12, (rac-di-exo)-N-{3-[3-(4-Fluoro-3-methyl-benzyl)-6-hydroxy-4-oxo-11-oxa-3-aza-tricyclo[6.2.1.0^2,7]undec-5-en-5-yl]-1,1-dioxo-1,4-dihydro-1λ^6-benzo[1,2,4]thiadiazin-7-yl}-methanesulfonamide] | < 20 nM |
| CC(C)(C)CCN1C(=O)C(C2=NS(=O)(=O)c3cc(NS(C)(=O)=O)ccc3N2)=C(O)C2C3CCC(O3)C21 (racemic) [Example 13, (rac-di-exo)-N-{3-[3-(3,3-Dimethyl-butyl)-6-hydroxy-4-oxo-11-oxa-3-aza-tricyclo[6.2.1.0^2,7]undec-5-en-5-yl]-1,1-dioxo-1,4-dihydro-1λ^6-benzo[1,2,4]thiadiazin-7-yl}-methanesulfonamide] | 20 to 100 nM |
| CS(=O)(=O)Nc1ccc2c(c1)S(=O)(=O)N=C(C1=C(O)C3C4CCC(O4)C3N(CCC3CC3)C1=O)N2 (racemic) [Example 23, (rac-di-exo)-N-{3-[3-(2-Cyclopropyl-ethyl)-6-hydroxy-4-oxo-11-oxa-3-aza-tricyclo[6.2.1.0^2,7]undec-5-en-5-yl]-1,1-dioxo-1,4-dihydro-1λ^6-benzo[1,2,4]thiadiazin-7-yl}-methanesulfonamide] | < 20 nM |
| CC(C)CCN1C(=O)C(C2=NS(=O)(=O)c3cc(NS(C)(=O)=O)ccc3N2)=C(O)C2C3CCC(O3)C21 (racemic) [Example 25, (rac-di-exo)-N-{3-[6-Hydroxy-3-(3-methyl-butyl)-4-oxo-11-oxa-3-aza-tricyclo[6.2.1.0^2,7]undec-5-en-5-yl]-1,1-dioxo-1,4-dihydro-1λ^6-benzo[1,2,4]thiadiazin-7-yl}-methanesulfonamide] | < 20 nM |
| CC(C)CCN1C(=O)C(C2=NS(=O)(=O)c3cc(NS(C)(=O)=O)ccc3N2)=C(O)C2C3C=CC(C3)C21 (racemic) [Example 31, (rac-di-exo)-N-{3-[6-Hydroxy-3-(3-methyl-butyl)-4-oxo-3-aza-tricyclo[6.2.1.0^2,7]undeca-5,9-dien-5-yl]-1,1-dioxo-1,4-dihydro-1λ^6-benzo[1,2,4]thiadiazin-7-yl}-methanesulfonamide] | 20 to 100 nM |
| CC(C)(C)CCN1C(=O)C(C2=NS(=O)(=O)c3cc(NS(C)(=O)=O)ccc3N2)=C(O)C2C3C=CC(C3)C21 (racemic) [Example 32, (rac-di-exo)-N-{3-[3-(3,3-Dimethyl-butyl)-6-hydroxy-4-oxo-3-aza-tricyclo[6.2.1.0^2,7]undeca-5,9-dien-5-yl]-1,1-dioxo-1,4-dihydro-1λ^6-benzo[1,2,4]thiadiazin-7-yl}-methanesulfonamide] | 20 to 100 nM |
| CC(C)CCN1C(=O)C(C2=NS(=O)(=O)c3cc(I)ccc3N2)=C(O)C2C3CCC(O3)C21 (racemic) [Example 33, (rac-di-exo)-6-Hydroxy-5-(7-iodo-1,1-dioxo-1,4-dihydro-1λ^6-benzo[1,2,4]thiadiazin-3-yl)-3-(3-methyl-butyl)-11-oxa-3-aza-tricyclo[6.2.1.0^2,7]undec-5-en-4-one] | 1000 to 100000 nM |
| CC(C)(C)CCN1C(=O)C(C2=CS(=O)(=O)c3cc(NS(C)(=O)=O)ccc3N2)=C(O)C2C3C=CC(C3)C21 (racemic) [Example 36, (rac-di-exo)-N-{3-[3-(3,3-Dimethyl-butyl)-6-hydroxy-4-oxo-3-aza-tricyclo[6.2.1.0^2,7]undeca-5,9-dien-5-yl]-1,1-dioxo-1,4-dihydro-1λ^6-benzo[1,4]thiazin-7-yl}-methanesulfonamide] | 20 to 100 nM |
| CS(=O)(=O)Nc1ccc2c(c1)S(=O)(=O)C=C(C1=C(O)C3C4C=CC(C4)C3N(Cc3ccc(F)cc3)C1=O)N2 (racemic) [Example 37, (rac-di-exo)-N-{3-[3-(4-Fluoro-benzyl)-6-hydroxy-4-oxo-3-aza-tricyclo[6.2.1.0^2,7]undeca-5,9-dien-5-yl]-1,1-dioxo-1,4-dihydro-1λ^6-benzo[1,4]thiazin-7-yl}-methanesulfonamide] | < 20 nM |
| CC(C)CCN1C(=O)C(C2=CS(=O)(=O)c3cc(NS(C)(=O)=O)ccc3N2)=C(O)C2C3C=CC(C3)C21 (racemic) [Example 38, (rac-di-exo)-N-{3-[6-Hydroxy-3-(3-methyl-butyl)-4-oxo-3-aza-tricyclo[6.2.1.0^2,7]undeca-5,9-dien-5-yl]-1,1-dioxo-1,4-dihydro-1λ^6-benzo[1,4]thiazin-7-yl}-methanesulfonamide] | 20 to 100 nM |
| CN(c1ccc2c(c1)S(=O)(=O)N=C(C1=C(O)C3C4C=CC(C4)C3N(Cc3ccc(F)cc3)C1=O)N2)S(C)(=O)=O (racemic) [Example 39, (rac-di-exo)-N-{3-[3-(4-Fluoro-benzyl)-6-hydroxy-4-oxo-3-aza-tricyclo[6.2.1.0^2,7]undeca-5,9-dien-5-yl]-1,1-dioxo-1,4-dihydro-1λ^6-benzo[1,2,4]thiadiazin-7-yl}-N-methyl-methanesulfonamide] | 1000 to 100000 nM |
| CC(C)CCN1C(=O)C(C2=NS(=O)(=O)c3cc(NS(=O)(=O)C4CC4)ccc3N2)=C(O)C2C3CCC(O3)C21 (racemic) [Example 42, (rac-di-exo)-Cyclopropanesulfonic acid{3-[6-hydroxy-3-(3-methyl-butyl)-4-oxo-11-oxa-3-aza-tricyclo[6.2.1.0^2,7]undec-5-en-5-yl]-1,1-dioxo-1,4-dihydro-1λ^6-benzo[1,2,4]thiadiazin-7-yl}-amide] | 20 to 100 nM |
| CC(C)(C)CCN1C(=O)C(C2=NS(=O)(=O)c3cc(NS(=O)(=O)C4CC4)ccc3N2)=C(O)C2C3C=CC(C3)C21 (racemic) [Example 43, (rac-di-exo)-Cyclopropanesulfonic acid{3-[3-(3,3-dimethyl-butyl)-6-hydroxy-4-oxo-3-aza-tricyclo[6.2.1.0^2,7]undeca-5,9-dien-5-yl]-1,1-dioxo-1,4-dihydro-1λ^6-benzo[1,2,4]thiadiazin-7-yl}-amide] | 20 to 100 nM |
| CC(C)CCN1C(=O)C(C2=NS(=O)(=O)c3cc(NS(=O)(=O)C4CC4)ccc3N2)=C(O)C2C3C=CC(C3)C21 (racemic) [Example 45, (rac-di-exo)-Cyclopropanesulfonic acid{3-[6-hydroxy-3-(3-methyl-butyl)-4-oxo-3-aza-tricyclo[6.2.1.0^2,7]undeca-5,9-dien-5-yl]-1,1-dioxo-1,4-dihydro-1λ^6-benzo[1,2,4]thiadiazin-7-yl}-amide] | 20 to 100 nM |
| O=C1C(C2=NS(=O)(=O)c3cc(NS(=O)(=O)C4CC4)ccc3N2)=C(O)C2C3C=CC(C3)C2N1Cc1ccc(F)cc1 (racemic) [Example 46, (rac-di-exo)-Cyclopropanesulfonic acid{3-[3-(4-fluoro-benzyl)-6-hydroxy-4-oxo-3-aza-tricyclo[6.2.1.0^2,7]undeca-5,9-dien-5-yl]-1,1-dioxo-1,4-dihydro-1λ^6-benzo[1,2,4]thiadiazin-7-yl}-amide] | < 20 nM |
